# From PubChem BioAssay AID2060883 (Molecular Pharmacology Branch, DTP, NCI, 2025)
# System: 843782-103-R-J1-PDC complex spheroid viability
# Assay: Anticancer human tumor 843782-103-R-J1-PDC patient-derived lung adenocarcinoma cell line growth inhibition [RAS]
# Details: for viability, T/C: stronger effect = lower value
# Procedure, shortened: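 Tumour cells grown as complex spheroids with HUVEC endothelial cells and mesenchymal stem cells, treated with RAS pathway inhibitor combinations. Each agent spans half-log steps from near clinical Cmax, or 10 microM where Cmax is unknown.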
# [1] = curve of first compound, second compound 0.000949 µM
# [2] = curve of first compound, second compound 0.003 µM
# [3] = curve of first compound, second compound 0.00949 µM
# [4] = curve of first compound, second compound 0.03 µM
# [5] = curve of first compound, second compound 0.0949 µM
# [6] = curve of first compound, second compound 0.3 µM
# [7] = second compound 0.000949 µM, first compound 0.0316 µM
# [8] = second compound 0.000949 µM, first compound 0.1 µM
# [9] = second compound 0.000949 µM, first compound 0.316 µM
# [10] = second compound 0.000949 µM, first compound 1 µM
# [11] = second compound 0.003 µM, first compound 0.0316 µM
# [12] = second compound 0.003 µM, first compound 0.1 µM
# [13] = second compound 0.003 µM, first compound 0.316 µM
# [14] = second compound 0.003 µM, first compound 1 µM
# [15] = second compound 0.00949 µM, first compound 0.0316 µM
# [16] = second compound 0.00949 µM, first compound 0.1 µM
# [17] = second compound 0.00949 µM, first compound 0.316 µM
# [18] = second compound 0.00949 µM, first compound 1 µM
# [19] = second compound 0.03 µM, first compound 0.0316 µM
# [20] = second compound 0.03 µM, first compound 0.1 µM
# [21] = second compound 0.03 µM, first compound 0.316 µM
# [22] = second compound 0.03 µM, first compound 1 µM
# [23] = second compound 0.0949 µM, first compound 0.0316 µM
# [24] = second compound 0.0949 µM, first compound 0.1 µM
# [25] = second compound 0.0949 µM, first compound 0.316 µM
# [26] = second compound 0.0949 µM, first compound 1 µM
# [27] = second compound 0.3 µM, first compound 0.0316 µM
# [28] = second compound 0.3 µM, first compound 0.1 µM
# [29] = second compound 0.3 µM, first compound 0.316 µM
# [30] = second compound 0.3 µM, first compound 1 µM
# 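Further: viability read after seven days of compound exposure.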
smiles,measurement,setting,value
C=CC(=O)Nc1cc(Nc2nccc(-c3cn(C)c4ccccc34)n2)c(OC)cc1N(C)CCN(C)C + C=CC(=O)N1CCN(c2nc(OCC3CCCN3C)nc3c(F)c(-c4nc(N)cc(C)c4C(F)(F)F)c(Cl)cc23)C(C)C1,IC50,"curve of first compound, second compound 0.00316 µM",320 nM
same,IC50,"curve of first compound, second compound 0.01 µM",352 nM
same,IC50,"curve of first compound, second compound 0.0316 µM",539 nM
same,IC50,"curve of first compound, second compound 0.1 µM",377 nM
same,IC50,"curve of first compound, second compound 0.316 µM",361 nM
same,IC50,"curve of first compound, second compound 1 µM",310 nM
same,"viability, T/C","second compound 0.00316 µM, first compound 0.00316 µM",93.5%
same,"viability, T/C","second compound 0.00316 µM, first compound 0.01 µM",90.7%
same,"viability, T/C","second compound 0.00316 µM, first compound 0.0316 µM",80.1%
same,"viability, T/C","second compound 0.00316 µM, first compound 0.1 µM",82.9%
same,"viability, T/C","second compound 0.00316 µM, first compound 0.316 µM",49.8%
same,"viability, T/C","second compound 0.00316 µM, first compound 1 µM",38.9%
same,"viability, T/C","second compound 0.01 µM, first compound 0.00316 µM",91.6%
same,"viability, T/C","second compound 0.01 µM, first compound 0.01 µM",84.5%
same,"viability, T/C","second compound 0.01 µM, first compound 0.0316 µM",83.5%
same,"viability, T/C","second compound 0.01 µM, first compound 0.1 µM",76.4%
same,"viability, T/C","second compound 0.01 µM, first compound 0.316 µM",50.6%
same,"viability, T/C","second compound 0.01 µM, first compound 1 µM",38.1%
same,"viability, T/C","second compound 0.0316 µM, first compound 0.00316 µM",91.1%
same,"viability, T/C","second compound 0.0316 µM, first compound 0.01 µM",88.2%
same,"viability, T/C","second compound 0.0316 µM, first compound 0.0316 µM",74.4%
same,"viability, T/C","second compound 0.0316 µM, first compound 0.1 µM",67%
same,"viability, T/C","second compound 0.0316 µM, first compound 0.316 µM",51.5%
same,"viability, T/C","second compound 0.0316 µM, first compound 1 µM",46.8%
same,"viability, T/C","second compound 0.1 µM, first compound 0.00316 µM",87.8%
same,"viability, T/C","second compound 0.1 µM, first compound 0.01 µM",84.5%
same,"viability, T/C","second compound 0.1 µM, first compound 0.0316 µM",90.4%
same,"viability, T/C","second compound 0.1 µM, first compound 0.1 µM",75.8%
same,"viability, T/C","second compound 0.1 µM, first compound 0.316 µM",53.4%
same,"viability, T/C","second compound 0.1 µM, first compound 1 µM",34.1%
same,"viability, T/C","second compound 0.316 µM, first compound 0.00316 µM",87%
same,"viability, T/C","second compound 0.316 µM, first compound 0.01 µM",94%
same,"viability, T/C","second compound 0.316 µM, first compound 0.0316 µM",77.2%
same,"viability, T/C","second compound 0.316 µM, first compound 0.1 µM",70.2%
same,"viability, T/C","second compound 0.316 µM, first compound 0.316 µM",52%
same,"viability, T/C","second compound 0.316 µM, first compound 1 µM",35.5%
same,"viability, T/C","second compound 1 µM, first compound 0.00316 µM",90.3%
same,"viability, T/C","second compound 1 µM, first compound 0.01 µM",78.7%
same,"viability, T/C","second compound 1 µM, first compound 0.0316 µM",84.9%
same,"viability, T/C","second compound 1 µM, first compound 0.1 µM",71%
same,"viability, T/C","second compound 1 µM, first compound 0.316 µM",49.7%
same,"viability, T/C","second compound 1 µM, first compound 1 µM",32.5%
CC(=O)OC12COC1CC(O)C1(C)C(=O)C(O)C3=C(C)C(OC(=O)C(O)C(NC(=O)OC(C)(C)C)c4ccccc4)CC(O)(C(OC(=O)c4ccccc4)C21)C3(C)C (stereo not drawn) + CCn1c(-c2cccnc2C(C)OC)c2c3cc(ccc31)N1CCOC(CC(NC(=O)C(C(C)C)N(C)C(=O)C3(F)CCN(C(=O)C#CC(C)(C)N(C)C)CC3)C(=O)N3CCCC(N3)C(=O)OCC(C)(C)C2)C1,IC50,[1],< 31.6 nM
same,IC50,[2],< 31.6 nM
same,IC50,[3],< 31.6 nM
same,IC50,[4],< 31.6 nM
same,IC50,[5],< 31.6 nM
same,IC50,[6],< 31.6 nM
same,"viability, T/C",[7],4.08%
same,"viability, T/C",[8],5.48%
same,"viability, T/C",[9],6.81%
same,"viability, T/C",[10],5.51%
same,"viability, T/C","second compound 0.000949 µM, first compound 3.16 µM",7.48%
same,"viability, T/C","second compound 0.000949 µM, first compound 10 µM",11.2%
same,"viability, T/C",[11],5.53%
same,"viability, T/C",[12],7.6%
same,"viability, T/C",[13],7.77%
same,"viability, T/C",[14],6.28%
same,"viability, T/C","second compound 0.003 µM, first compound 3.16 µM",6.75%
same,"viability, T/C","second compound 0.003 µM, first compound 10 µM",9.92%
same,"viability, T/C",[15],5.3%
same,"viability, T/C",[16],8.65%
same,"viability, T/C",[17],9.68%
same,"viability, T/C",[18],7.03%
same,"viability, T/C","second compound 0.00949 µM, first compound 3.16 µM",10%
same,"viability, T/C","second compound 0.00949 µM, first compound 10 µM",9.14%
same,"viability, T/C",[19],5.25%
same,"viability, T/C",[20],7.67%
same,"viability, T/C",[21],6.65%
same,"viability, T/C",[22],8.38%
same,"viability, T/C","second compound 0.03 µM, first compound 3.16 µM",9.51%
same,"viability, T/C","second compound 0.03 µM, first compound 10 µM",12.3%
same,"viability, T/C",[23],8.61%
same,"viability, T/C",[24],7.03%
same,"viability, T/C",[25],8.34%
same,"viability, T/C",[26],7.78%
same,"viability, T/C","second compound 0.0949 µM, first compound 3.16 µM",10.6%
same,"viability, T/C","second compound 0.0949 µM, first compound 10 µM",9.37%
same,"viability, T/C",[27],3.84%
same,"viability, T/C",[28],5.17%
same,"viability, T/C",[29],6.69%
same,"viability, T/C",[30],9.62%
same,"viability, T/C","second compound 0.3 µM, first compound 3.16 µM",8.58%
same,"viability, T/C","second compound 0.3 µM, first compound 10 µM",9.58%
C=CC(=O)Nc1cc(Nc2nccc(-c3cn(C)c4ccccc34)n2)c(OC)cc1N(C)CCN(C)C + CCn1c(-c2cc(N3CCN(C)CC3)cnc2C(C)OC)c2c3cc(ccc31)-c1csc(n1)CC(NC(=O)C1CC1C)C(=O)N1CCCC(N1)C(=O)OCC(C)(C)C2,IC50,[1],296 nM
same,IC50,[2],28.9 nM
same,IC50,[3],< 3.16 nM
same,IC50,[4],< 3.16 nM
same,IC50,[5],< 3.16 nM
same,IC50,[6],< 3.16 nM
same,"viability, T/C","second compound 0.000949 µM, first compound 0.00316 µM",81.5%
same,"viability, T/C","second compound 0.000949 µM, first compound 0.01 µM",69%
same,"viability, T/C",[7],71.1%
same,"viability, T/C",[8],56.2%
same,"viability, T/C",[9],49.4%
same,"viability, T/C",[10],41.3%
same,"viability, T/C","second compound 0.003 µM, first compound 0.00316 µM",60.1%
same,"viability, T/C","second compound 0.003 µM, first compound 0.01 µM",55.5%
same,"viability, T/C",[11],50%
same,"viability, T/C",[12],41%
same,"viability, T/C",[13],33.9%
same,"viability, T/C",[14],30.2%
same,"viability, T/C","second compound 0.00949 µM, first compound 0.00316 µM",34.9%
same,"viability, T/C","second compound 0.00949 µM, first compound 0.01 µM",32.6%
same,"viability, T/C",[15],32.1%
same,"viability, T/C",[16],25.7%
same,"viability, T/C",[17],26.9%
same,"viability, T/C",[18],18.3%
same,"viability, T/C","second compound 0.03 µM, first compound 0.00316 µM",18.6%
same,"viability, T/C","second compound 0.03 µM, first compound 0.01 µM",19.4%
same,"viability, T/C",[19],17.6%
same,"viability, T/C",[20],16.9%
same,"viability, T/C",[21],17.6%
same,"viability, T/C",[22],14.2%
same,"viability, T/C","second compound 0.0949 µM, first compound 0.00316 µM",17.8%
same,"viability, T/C","second compound 0.0949 µM, first compound 0.01 µM",13.2%
same,"viability, T/C",[23],13.7%
same,"viability, T/C",[24],15.4%
same,"viability, T/C",[25],14%
same,"viability, T/C",[26],12.8%
same,"viability, T/C","second compound 0.3 µM, first compound 0.00316 µM",13.8%
same,"viability, T/C","second compound 0.3 µM, first compound 0.01 µM",13.2%
same,"viability, T/C",[27],10.6%
same,"viability, T/C",[28],11.8%
same,"viability, T/C",[29],13.6%
same,"viability, T/C",[30],10.4%
CCn1c(-c2cccnc2C(C)OC)c2c3cc(ccc31)N1CCOC(CC(NC(=O)C(C(C)C)N(C)C(=O)C3(F)CCN(C(=O)C#CC(C)(C)N(C)C)CC3)C(=O)N3CCCC(N3)C(=O)OCC(C)(C)C2)C1 (stereo not drawn),"viability, T/C",compound 0.000949 µM,82.9% [middle of 8 runs]
same,"viability, T/C",compound 0.003 µM,80.1% [middle of 8 runs]
same,"viability, T/C",compound 0.00949 µM,79.1% [middle of 8 runs]
same,"viability, T/C",compound 0.03 µM,75.8% [middle of 8 runs]
same,"viability, T/C",compound 0.0949 µM,68.4% [middle of 8 runs]
same,"viability, T/C",compound 0.3 µM,67.3% [middle of 8 runs]
same,IC50,"compound alone, run of 08/20/2024",> 300 nM
